Our source for the IC50 values is US10660877B2 (BRISTOL-MYERS SQUIBB COMPANY, priority 2016, dated 2020).

Where two headings read alike, the source gives them in different places.

The target in one assay is human TLR9 (Homo sapiens (Human), UniProt Q9NR96). Nature of the assay: TLR9 inhibition reporter assay (HEK-Blue cells, SEAP reporter, ODN2006 stimulation).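 Note: compounds tested over 0.05 nM to 50 µM, 22 h incubation, inhibition taken as SEAP signal drop from agonist plus DMSO wells toward a known inhibitor control.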
A further assay has as its target human TLR7 (Homo sapiens (Human), UniProt Q9NYK1). Nature of the assay: TLR7 inhibition reporter assay (HEK-Blue cells, SEAP reporter, gardiquimod stimulation). The format is cell-based.
In the next assay the target is human TLR8 (Homo sapiens (Human), UniProt Q9NR97). Nature of the assay: TLR8 inhibition reporter assay (HEK-Blue cells, SEAP reporter, R848 stimulation).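 Note: compounds tested from 0.05 nM to 50 µM, 22 h at 37 °C, SEAP measured with HEK-Blue Detection, inhibition relative to agonist plus DMSO versus a known inhibitor.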
[1] abbreviates: read-out: TLR9 IC50, HEK-Blue cells overexpressing human TLR9, ODN2006 5 nM.
[2] abbreviates: HEK-Blue cells overexpressing human TLR7, gardiquimod 7.5 μM.
The mark [3] stands for this setting: read-out: TLR8 IC50, HEK-Blue cells overexpressing human TLR8, R848 15.9 μM.
The mark [4] stands for this setting: read-out: TLR9 IC50, HEK-Blue cells, ODN2006 5 nM.
The mark [5] stands for this setting: HEK-Blue cells, gardiquimod 7.5 μM.
The mark [6] stands for this setting: read-out: TLR8 IC50, HEK-Blue cells, R848 15.9 μM.

human TLR8, sequence (Q9NR97 27-1041): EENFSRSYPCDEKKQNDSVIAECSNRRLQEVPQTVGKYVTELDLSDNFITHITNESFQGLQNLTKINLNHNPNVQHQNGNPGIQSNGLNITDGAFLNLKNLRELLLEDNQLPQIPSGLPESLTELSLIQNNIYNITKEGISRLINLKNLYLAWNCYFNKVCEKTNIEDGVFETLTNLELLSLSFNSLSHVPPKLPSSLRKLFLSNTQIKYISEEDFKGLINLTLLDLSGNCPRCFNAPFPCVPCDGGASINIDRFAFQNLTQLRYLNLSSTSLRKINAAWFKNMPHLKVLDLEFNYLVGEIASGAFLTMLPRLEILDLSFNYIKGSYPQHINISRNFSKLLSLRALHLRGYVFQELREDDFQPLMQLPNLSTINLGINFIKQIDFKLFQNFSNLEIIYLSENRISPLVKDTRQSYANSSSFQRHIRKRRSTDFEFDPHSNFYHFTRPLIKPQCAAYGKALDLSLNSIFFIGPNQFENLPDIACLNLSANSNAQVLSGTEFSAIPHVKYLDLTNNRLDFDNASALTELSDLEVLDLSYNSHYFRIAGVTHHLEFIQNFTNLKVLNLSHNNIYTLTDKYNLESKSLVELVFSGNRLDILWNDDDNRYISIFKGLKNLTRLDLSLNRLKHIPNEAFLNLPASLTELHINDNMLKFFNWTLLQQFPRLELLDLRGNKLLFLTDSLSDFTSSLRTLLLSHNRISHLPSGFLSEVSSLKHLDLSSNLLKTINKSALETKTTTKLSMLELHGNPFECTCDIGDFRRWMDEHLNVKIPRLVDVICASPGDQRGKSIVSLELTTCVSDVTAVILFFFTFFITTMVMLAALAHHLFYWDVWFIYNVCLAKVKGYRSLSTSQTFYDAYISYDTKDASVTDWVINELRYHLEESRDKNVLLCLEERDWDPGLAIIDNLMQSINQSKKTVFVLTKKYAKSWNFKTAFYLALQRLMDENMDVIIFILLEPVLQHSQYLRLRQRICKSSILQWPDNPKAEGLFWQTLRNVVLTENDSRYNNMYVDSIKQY
human TLR9, sequence (Q9NR96 26-1032): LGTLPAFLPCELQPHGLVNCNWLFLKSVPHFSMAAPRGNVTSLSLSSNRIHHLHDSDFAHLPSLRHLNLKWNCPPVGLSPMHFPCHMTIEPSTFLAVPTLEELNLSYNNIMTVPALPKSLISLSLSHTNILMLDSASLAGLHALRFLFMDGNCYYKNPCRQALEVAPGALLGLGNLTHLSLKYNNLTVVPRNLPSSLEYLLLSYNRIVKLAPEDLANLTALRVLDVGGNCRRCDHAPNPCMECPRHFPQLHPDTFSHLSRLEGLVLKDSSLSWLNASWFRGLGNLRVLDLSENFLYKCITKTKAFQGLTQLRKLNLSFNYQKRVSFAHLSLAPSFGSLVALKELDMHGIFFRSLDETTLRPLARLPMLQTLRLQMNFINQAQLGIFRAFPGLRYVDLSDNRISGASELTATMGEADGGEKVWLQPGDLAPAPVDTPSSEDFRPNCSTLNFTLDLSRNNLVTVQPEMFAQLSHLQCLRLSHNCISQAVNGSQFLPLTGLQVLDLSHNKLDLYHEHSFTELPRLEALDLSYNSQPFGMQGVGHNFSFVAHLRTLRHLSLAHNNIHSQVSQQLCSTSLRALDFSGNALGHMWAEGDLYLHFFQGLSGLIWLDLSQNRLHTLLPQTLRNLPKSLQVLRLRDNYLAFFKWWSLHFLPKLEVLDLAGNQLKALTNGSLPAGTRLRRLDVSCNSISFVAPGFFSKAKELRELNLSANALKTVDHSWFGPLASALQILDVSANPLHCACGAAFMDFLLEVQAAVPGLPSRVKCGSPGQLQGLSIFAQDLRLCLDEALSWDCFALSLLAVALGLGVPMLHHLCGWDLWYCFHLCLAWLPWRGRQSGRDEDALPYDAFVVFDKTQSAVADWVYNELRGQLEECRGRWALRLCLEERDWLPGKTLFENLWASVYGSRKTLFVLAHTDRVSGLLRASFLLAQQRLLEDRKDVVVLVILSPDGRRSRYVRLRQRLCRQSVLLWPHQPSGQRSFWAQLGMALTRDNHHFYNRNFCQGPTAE
human TLR7, sequence (Q9NYK1 27-1049): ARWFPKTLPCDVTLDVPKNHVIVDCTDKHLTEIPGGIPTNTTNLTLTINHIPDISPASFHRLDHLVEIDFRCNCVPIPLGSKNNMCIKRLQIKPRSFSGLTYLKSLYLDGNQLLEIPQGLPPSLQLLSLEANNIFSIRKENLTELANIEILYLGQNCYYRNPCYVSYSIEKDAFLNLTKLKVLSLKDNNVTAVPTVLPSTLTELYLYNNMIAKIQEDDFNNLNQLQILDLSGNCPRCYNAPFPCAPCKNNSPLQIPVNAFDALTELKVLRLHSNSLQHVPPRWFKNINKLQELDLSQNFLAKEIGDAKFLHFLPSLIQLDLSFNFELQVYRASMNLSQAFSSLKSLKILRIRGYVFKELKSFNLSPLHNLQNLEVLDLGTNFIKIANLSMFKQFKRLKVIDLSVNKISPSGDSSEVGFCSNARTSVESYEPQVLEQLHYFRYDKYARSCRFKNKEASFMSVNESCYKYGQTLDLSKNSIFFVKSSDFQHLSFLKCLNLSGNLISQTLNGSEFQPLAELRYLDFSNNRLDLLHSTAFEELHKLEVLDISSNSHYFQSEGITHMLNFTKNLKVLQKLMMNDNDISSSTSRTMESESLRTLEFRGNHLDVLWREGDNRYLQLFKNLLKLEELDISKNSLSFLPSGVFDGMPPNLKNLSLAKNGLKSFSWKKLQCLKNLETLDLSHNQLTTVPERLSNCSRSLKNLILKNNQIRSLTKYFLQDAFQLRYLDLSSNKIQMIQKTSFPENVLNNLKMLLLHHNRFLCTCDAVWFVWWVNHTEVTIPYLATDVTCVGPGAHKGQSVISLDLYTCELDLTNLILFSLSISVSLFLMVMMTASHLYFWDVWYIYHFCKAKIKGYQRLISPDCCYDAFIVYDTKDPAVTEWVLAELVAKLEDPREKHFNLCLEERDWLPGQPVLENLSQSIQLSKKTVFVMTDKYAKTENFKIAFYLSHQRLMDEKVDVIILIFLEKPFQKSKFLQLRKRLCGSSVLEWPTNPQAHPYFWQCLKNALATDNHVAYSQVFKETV

For the compound `CCc1c(-c2ccnc(OC)c2)[nH]c2ccc(C3CCN([C@H]4CCCNCC4)CC3)cc12` [Example 794, (S)-5-(1-(azepan-4-yl)piperidin-4-yl)-3-ethyl-2-(2-methoxypyridin-4-yl)-1H-indole], the concentration for half-maximal inhibition (IC50) at human TLR9 (setting [1]) came out at 1100 nM; against human TLR7 (setting [2]), 674 nM; on human TLR8 (setting [3]), 40.9 nM.

On to `Cc1cc(-c2[nH]c3ccc(C4CCN(C(=O)CN5C[C@H](C)C[C@@H]5CO)CC4)cc3c2C(C)C)cc(C)n1` [Example 410, 1-(4-(2-(2,6-dimethylpyridin-4-yl)-3-isopropyl-1H-indol-5-yl)piperidin-1-yl)-2-((2R,4R)-2-(hydroxymethyl)-4-methylpyrrolidin-1-yl)ethan-1-one], for which the results for the IC50 on human TLR9 (setting [1]), on human TLR7 (setting [2]) and on human TLR8 (setting [3]) were 481 nM, 4.5 nM and 27 nM, respectively.

Turning to `CNCCN1CCC(c2ccc3[nH]c(-c4ccnc(Cl)c4)c(C)c3c2)CC1` [Example 751, 2-(4-(2-(2-chloropyridin-4-yl)-3-methyl-1H-indol-5-yl)piperidin-1-yl)-N-methylethan-1-amine], the results for the IC50 at human TLR9 (setting [1]), on human TLR7 (setting [2]) and on human TLR8 (setting [3]) were 324 nM, 472 nM and 55.6 nM, respectively.

Take `Cc1cc(-c2[nH]c3ccc(C4CCN(C(=O)CN(C)C(C)(C)C)CC4)cc3c2C(C)C)cc(C)n1` [Example 359, 2-(tert-butyl (methyl)amino)-1-(4-(2-(2,6-dimethylpyridin-4-yl)-3-isopropyl-1H-indol-5-yl)piperidin-1-yl)ethan-1-one]: the IC50 was found to be 826 nM at human TLR9 (setting [1]), 7.1 nM against human TLR7 (setting [2]) and 11.7 nM at human TLR8 (setting [3]).

As to `Cc1cc(-c2[nH]c3ccc(C4CCN(C(=O)CN(CCO)C(C)C)CC4)cc3c2C(C)C)cc(C)n1` [Example 415, 1-(4-(2-(2,6-dimethylpyridin-4-yl)-3-isopropyl-1H-indol-5-yl)piperidin-1-yl)-2-((2-hydroxyethyl)(isopropyl)amino)ethan-1-one], the 50% inhibitory concentration (IC50) on human TLR9 (setting [1]) came out at 1860 nM; at human TLR7 (setting [2]) it was 7.9 nM; on human TLR8 (setting [3]), 39.7 nM.

As for `Cc1cc(-c2[nH]c3cc(C(F)(F)F)c(C4CCN(CC5CCNC5)CC4)cc3c2C(C)C)ccn1` (stereo not drawn) [Example 873, 3-isopropyl-2-(2-methylpyridin-4-yl)-5-(1-(pyrrolidin-3-ylmethyl)piperidin-4-yl)-6-(trifluoromethyl)-1H-indole], the IC50 at human TLR9 (setting [4]) came to 96 nM; against human TLR7 (setting [5]) it was 13.5 nM; at human TLR8 (setting [6]), 467 nM.

With `COc1cc(OC)nc(CN2CCC(c3ccc4[nH]c(-c5cc(C)nc(C)c5)c(C(C)C)c4c3)CC2)n1` [Example 447, 5-(1-((4,6-dimethoxypyrimidin-2-yl)methyl)piperidin-4-yl)-2-(2,6-dimethylpyridin-4-yl)-3-isopropyl-1H-indole], the IC50 on human TLR9 (setting [1]) turned out to be 446 nM; against human TLR7 (setting [2]), 5.4 nM; at human TLR8 (setting [3]), 7 nM.

With `Cc1cc(-c2[nH]c3ccc(C4CCNCC4)cc3c2C(C)C)cc(N2CCN(C)CC2)n1` [Example 480, 3-isopropyl-2-(2-methyl-6-(4-methylpiperazin-1-yl)pyridin-4-yl)-5-(piperidin-4-yl)-1H-indole], the IC50 at human TLR9 (setting [1]) amounted to 707 nM; at human TLR7 (setting [2]) it was 2880 nM; at human TLR8 (setting [3]) it was 7060 nM.

On to `FC(F)Cc1c(-c2ccnc(Cl)c2)[nH]c2ccc(C3CCNCC3)cc12` [Example 494, 2-(2-chloropyridin-4-yl)-3-(2,2-difluoroethyl)-5-(piperidin-4-yl)-1H-indole], for which the values for the IC50 at human TLR9 (setting [1]), on human TLR7 (setting [2]) and on human TLR8 (setting [3]) were 2040 nM, 36.5 nM and 66.4 nM, respectively.

Consider `COc1cc(OC)nc(CN2CCC(c3ccc4[nH]c(-c5cc(C)ncc5C)c(C(C)C)c4c3)CC2)n1` [Example 693, 5-(1-((4,6-dimethoxypyrimidin-2-yl)methyl)piperidin-4-yl)-2-(2,5-dimethylpyridin-4-yl)-3-isopropyl-1H-indole], for which the IC50 at human TLR9 (setting [1]) was 1680 nM; at human TLR7 (setting [2]), 33.1 nM; on human TLR8 (setting [3]), 5.2 nM.

On to `Cc1cc(-c2[nH]c3ccc(C4CCN(C5CC(C)OC6(CC6)C5)CC4)cc3c2C(C)C)cc(C)n1` (stereo not drawn) [Example 456, 2-(2,6-dimethylpyridin-4-yl)-3-isopropyl-5-(1-(5-methyl-4-oxaspiro[2.5]octan-7-yl)piperidin-4-yl)-1H-indole], for which the 50% inhibitory concentration (IC50) at human TLR9 (setting [1]) came to 340 nM; against human TLR7 (setting [2]), 4.2 nM; on human TLR8 (setting [3]), 5.8 nM.

Turning to `Cc1cc(-c2[nH]c3ccc(C4CCNCC4O)cc3c2C(C)C)cc(C)n1` (single isomer, unassigned) [Example 488B, 4-(2-(2,6-dimethylpyridin-4-yl)-3-isopropyl-1H-indol-5-yl)piperidin-3-ol], the concentration for half-maximal inhibition (IC50) on human TLR9 (TLR9 IC50, HEK-Blue cells overexpressing human TLR9, ODN2006 5 nM) was determined as 308 nM; against human TLR7 (setting [2]) it was 2.4 nM; on human TLR8 (TLR8 IC50, HEK-Blue cells overexpressing human TLR8, R848 15.9 μM), 33.1 nM.

With `Cc1cc(-c2[nH]c3ccc(C4CCN(Cc5c[nH]nn5)CC4)cc3c2C(C)C)cc(C)n1` [Example 446, 5-(1-((1H-1,2,3-triazol-4-yl)methyl)piperidin-4-yl)-2-(2,6-dimethylpyridin-4-yl)-3-isopropyl-1H-indole], the figures for the IC50 at human TLR9 (setting [1]), on human TLR7 (setting [2]) and on human TLR8 (setting [3]) were 292 nM, 1.3 nM and 2.6 nM, respectively.

Regarding `Cc1cc(-c2[nH]c3cc(F)c(C4CCN(CC(=O)N(C)C)CC4)cc3c2C(C)C)c(C)cn1` [Example 835, 2-(4-(2-(2,5-dimethylpyridin-4-yl)-6-fluoro-3-isopropyl-1H-indol-5-yl)piperidin-1-yl)-N,N-dimethylacetamide], the half-inhibitory concentration (IC50) was found to be 1950 nM at human TLR9 (setting [4]), 2.9 nM at human TLR7 (setting [5]) and 3.4 nM at human TLR8 (setting [6]).

Consider `Cc1cc(-c2[nH]c3ccc(C4CCN(C(=O)C5CCOC5)CC4)cc3c2C(C)C)cc(C)n1` (stereo not drawn) [Example 199, (4-(2-(2,6-dimethylpyridin-4-yl)-3-isopropyl-1H-indol-5-yl)piperidin-1-yl)(tetrahydrofuran-3-yl)methanone], for which the values for the IC50 on human TLR9 (setting [1]), at human TLR7 (setting [2]) and on human TLR8 (setting [3]) were 46600 nM, 3.6 nM and 86.1 nM, respectively.

Turning to `CNC(=O)CN1CCC(c2ccc3[nH]c(-c4cc(C)ncc4C)c(C(C)C)c3c2)CC1` [Example 653, 2-(4-(2-(2,5-dimethylpyridin-4-yl)-3-isopropyl-1H-indol-5-yl)piperidin-1-yl)-N-methylacetamide], the IC50 on human TLR9 (setting [1]) is 4160 nM; at human TLR7 (setting [2]) it was 13.9 nM; at human TLR8 (setting [3]), 4.4 nM.

As for `Cc1cc(-c2[nH]c3ccc(C4CCN(Cc5c[nH]nn5)CC4)cc3c2C(C)C)c(C)cn1` [Example 690, 5-(1-((1H-1,2,3-triazol-4-yl)methyl)piperidin-4-yl)-2-(2,5-dimethylpyridin-4-yl)-3-isopropyl-1H-indole], the IC50 is 3510 nM on human TLR9 (setting [1]), 11 nM on human TLR7 (setting [2]) and 1.9 nM at human TLR8 (setting [3]).

Turning to `Cc1cc(-c2[nH]c3ccc(C4CCN(C5CCCN(C(C)C)C5)CC4)cc3c2C(C)C)ccn1` (stereo not drawn) [Example 707, 3-isopropyl-5-(1′-isopropyl-[1,3′-bipiperidin]-4-yl)-2-(2-methylpyridin-4-yl)-1H-indole], the figures for the IC50 on human TLR9 (setting [1]), against human TLR7 (setting [2]) and at human TLR8 (setting [3]) were 217 nM, 7.6 nM and 2.8 nM, respectively.

Take `Cc1cc(-c2[nH]c3ccc(C4CCN(C(=O)C5(C)CCNCC5)CC4)cc3c2C(C)C)cc(C)n1` [Example 197, (4-(2-(2,6-dimethylpyridin-4-yl)-3-isopropyl-1H-indol-5-yl)piperidin-1-yl)(4-methylpiperidin-4-yl)methanone]: the IC50 at human TLR9 (setting [1]) stood at 322 nM; against human TLR7 (setting [2]), 2.8 nM; at human TLR8 (setting [3]), 23.9 nM.

As for `CCc1c(-c2ccnc(OC(C)C)c2)[nH]c2ccc(C3CCN(C4CCN(CC(C)C)CC4)CC3)cc12` [Example 769, 3-ethyl-5-(1′-isobutyl-[1,4′-bipiperidin]-4-yl)-2-(2-isopropoxypyridin-4-yl)-1H-indole], the IC50 is 1500 nM on human TLR9 (setting [1]), 5380 nM on human TLR7 (setting [2]) and 1050 nM on human TLR8 (setting [3]).

With `Cc1cc(-c2[nH]c3ccc(C4CCN(C(=O)[C@@H](N)CCCNC(N)=O)CC4)cc3c2C(C)C)ccn1` [Example 564, (S)-1-(4-amino-5-(4-(3-isopropyl-2-(2-methylpyridin-4-yl)-1H-indol-5-yl)piperidin-1-yl)-5-oxopentyl)urea], the values for the IC50 at human TLR9 (setting [1]), on human TLR7 (setting [2]) and on human TLR8 (setting [3]) were 6560 nM, 202 nM and 80.1 nM, respectively.

For `Cc1cc(-c2[nH]c3ccc(C4CCN(CC(F)(F)F)CC4)cc3c2C(C)C)ccn1` [Example 658, 3-isopropyl-2-(2-methylpyridin-4-yl)-5-(1-(2,2,2-trifluoroethyl)piperidin-4-yl)-1H-indole], the IC50 at human TLR9 (setting [1]) is 7290 nM; at human TLR7 (setting [2]), 434 nM; on human TLR8 (setting [3]), 645 nM.

With `Cc1cc(-c2[nH]c3ccc(C4CCN(CC(=O)NCC5CC5)CC4)cc3c2C(C)C)cc(C)n1` [Example 223, N-(cyclopropylmethyl)-2-(4-(2-(2,6-dimethylpyridin-4-yl)-3-isopropyl-1H-indol-5-yl)piperidin-1-yl)acetamide], the results for the IC50 at human TLR9 (setting [1]), against human TLR7 (setting [2]) and on human TLR8 (setting [3]) were 1160 nM, 3.7 nM and 10.7 nM, respectively.

`CCC(O)CN1CCC(c2ccc3[nH]c(-c4ccnc(C)c4)c(C(C)C)c3c2)CC1` (stereo not drawn) [Example 664, 1-(4-(3-isopropyl-2-(2-methylpyridin-4-yl)-1H-indol-5-yl)piperidin-1-yl)butan-2-ol]: the IC50 at human TLR9 (setting [1]) came to 1570 nM; against human TLR7 (setting [2]) it was 10.2 nM; at human TLR8 (setting [3]) it was 4.5 nM.

`Cc1cc(-c2[nH]c3ccc(C4CCN(C(=O)CN(C)C)CC4)cc3c2C(C)C)c(C)cn1` [Example 585, 2-(dimethylamino)-1-(4-(2-(2,5-dimethylpyridin-4-yl)-3-isopropyl-1H-indol-5-yl)piperidin-1-yl)ethan-1-one]: the IC50 turned out to be 1670 nM on human TLR9 (setting [1]), 10.8 nM against human TLR7 (setting [2]) and 5.2 nM at human TLR8 (setting [3]).
